{"source": "paper PMC4175002", "about": "“The Design and Synthesis of Potent and Selective Inhibitors of Trypanosoma brucei Glycogen Synthase Kinase 3 for the Treatment of Human African Trypanosomiasis” (Journal of Medicinal Chemistry, 2014)", "key": {"HsCDK2/cyclin A": {"target": "HsCDK2/cyclin A (Homo sapiens, UniProt P24941)", "experiment": "Radiometric Flashplate potency assay, HsCDK2/cyclin A", "assay_type": "biochemical", "conditions": "ratio of IC50 values", "protocol": "For compound potency determinations, a radiometric 96-well Flashplate assay (PerkinElmer) was adopted. Compounds were solubilized in DMSO at a top concentration of 3 mM and serially diluted to achieve 10-point titration of final assay concentrations from 30 μM to 0.3 nM with a final DMSO concentration of 1% (v/v). The reaction mixtures contained 1 μM biotinylated GSP2 substrate, 1 μM ATP, 3.7 KBq/well [γ-33P]-ATP and 2.5 nM TbGSK3 in the TbGSK3 kinase assay buffer. GSK3 inhibitors were screened for selectivity assessment also against HsGSK3β. For HsGSK3 assay, the reaction mixes contained 1 μM biotinylated GSP2 substrate, 2 μM ATP, 7.4 KBq/well [γ-33P]-ATP and 15 nM HsGSK3β in the TbGSK3 kinase assay buffer (25 mM Tris-HCl, pH 7.5, 10 mM MgCl2, 5 mM DTT, 0.02% CHAPS, 2 U/mL heparin). For HsCDK2/cyclin A assay, the reaction mixtures contained 1 mM CDK5 biotinylated peptide substrate (Biotin-C6-PKTPKKAKKL), 1 μM ATP, 7.4 KBq/well [γ-^33P]-ATP and 2 nM HsCDK2/cyclin A in the kinase assay buffer (50 mM Tris-HCl, pH 7.5, 10 mM MgCl2, 2 mM DTT, 100 mM NaCl, 0.2 mM EGTA, 0.02% (v/v) Brij35).\nFor the HsCDK2 assay, the analysis was performed using two different standards (GW8510 and staurosporine) tested respectively five times in a single run and 19 times in 2 independent runs. This implies that a difference of >0.3 in pIC50 can be considered statistically significant for this assay."}, "P38b MAPK": {"target": "T1, P38b MAPK (Homo sapiens, UniProt Q15759)", "T1 construct": "purchased Division of Signal Transduction Therapy (DSTT), University of Dundee", "T1 sequence (Q15759 whole entry)": "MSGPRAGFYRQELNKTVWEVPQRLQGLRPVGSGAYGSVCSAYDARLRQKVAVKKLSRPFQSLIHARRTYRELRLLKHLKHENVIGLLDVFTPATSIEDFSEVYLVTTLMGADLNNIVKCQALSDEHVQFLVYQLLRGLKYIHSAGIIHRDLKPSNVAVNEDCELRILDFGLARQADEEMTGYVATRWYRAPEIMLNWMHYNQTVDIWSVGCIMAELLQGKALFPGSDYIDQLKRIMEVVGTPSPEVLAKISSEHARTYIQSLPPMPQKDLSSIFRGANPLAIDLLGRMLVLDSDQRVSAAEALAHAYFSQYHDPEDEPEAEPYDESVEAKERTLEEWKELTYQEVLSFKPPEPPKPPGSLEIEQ", "experiment": "Mammalian kinase profiling (DSTT panel)", "assay_type": "biochemical", "conditions": "10 μM; average percentage of remaining activity"}, "MRC5 cells": {"system": "MRC5 cells", "experiment": "MRC5 proliferation assay (resazurin)", "assay_type": "cell-based, human", "conditions": "T. b. brucei versus MRC5 EC50", "protocol": "(§1) Measurement of inhibition of the proliferation of MRC5 (human lung fibroblast) cells and T. b. brucei bloodstream stage cells was performed using a modification of the cell viability assay previously described.[33] Compounds (50 μM to 0.5 nM) were incubated with 2 × 10^3 cells/well in 0.2 mL of the appropriate culture medium (MEM with 10% fetal bovine serum for MRC5 cells) in clear 96-well plates. Plates were incubated at 37 °C in the presence of 5% CO2 for 69 h. Resazurin was then added to a final concentration of 50 μM, and plates were incubated as above for a further 4 h before being read on a BioTek flx800 fluorescent plate reader."}, "GSK3b": {"target": "T2, GSK3b (Homo sapiens, UniProt P49841)", "T2 construct": "purchased Division of Signal Transduction Therapy (DSTT), University of Dundee", "T2 sequence (P49841 whole entry)": "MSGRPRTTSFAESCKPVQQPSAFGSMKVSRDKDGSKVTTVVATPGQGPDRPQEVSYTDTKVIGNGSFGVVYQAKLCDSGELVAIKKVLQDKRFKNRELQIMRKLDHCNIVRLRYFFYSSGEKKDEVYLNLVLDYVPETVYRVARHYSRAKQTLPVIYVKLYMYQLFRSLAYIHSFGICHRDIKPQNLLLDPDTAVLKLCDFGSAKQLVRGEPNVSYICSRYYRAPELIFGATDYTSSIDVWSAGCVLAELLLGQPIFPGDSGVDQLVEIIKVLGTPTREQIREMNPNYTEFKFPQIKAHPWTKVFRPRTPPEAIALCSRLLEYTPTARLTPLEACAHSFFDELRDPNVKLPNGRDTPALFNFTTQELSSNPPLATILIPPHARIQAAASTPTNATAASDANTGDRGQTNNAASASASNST", "experiment": "Mammalian kinase profiling (DSTT panel)", "assay_type": "biochemical", "conditions": "read-out: inhibition of GSK3β"}, "CDK2": {"target": "T3, CDK2 (Homo sapiens, UniProt P24941)", "T3 construct": "purchased Division of Signal Transduction Therapy (DSTT), University of Dundee", "experiment": "Mammalian kinase profiling (DSTT panel)", "assay_type": "biochemical"}, "endogenous TbGSK3 short": {"system": "endogenous TbGSK3 short", "conditions": "parasite cell extracts; cited from earlier work"}, "[1]": {"system": "bloodstream form T. b. brucei", "experiment": "Trypanosome proliferation assay (resazurin)", "assay_type": "cell-based", "conditions": "Trypanosoma brucei, 72 h, concentration required to inhibit growth in culture by 50% over 72 h", "protocol": "as §1"}, "PKBa": {"target": "T4, PKBa (Homo sapiens, UniProt P31749)", "T4 construct": "purchased Division of Signal Transduction Therapy (DSTT), University of Dundee", "T4 sequence (P31749 whole entry)": "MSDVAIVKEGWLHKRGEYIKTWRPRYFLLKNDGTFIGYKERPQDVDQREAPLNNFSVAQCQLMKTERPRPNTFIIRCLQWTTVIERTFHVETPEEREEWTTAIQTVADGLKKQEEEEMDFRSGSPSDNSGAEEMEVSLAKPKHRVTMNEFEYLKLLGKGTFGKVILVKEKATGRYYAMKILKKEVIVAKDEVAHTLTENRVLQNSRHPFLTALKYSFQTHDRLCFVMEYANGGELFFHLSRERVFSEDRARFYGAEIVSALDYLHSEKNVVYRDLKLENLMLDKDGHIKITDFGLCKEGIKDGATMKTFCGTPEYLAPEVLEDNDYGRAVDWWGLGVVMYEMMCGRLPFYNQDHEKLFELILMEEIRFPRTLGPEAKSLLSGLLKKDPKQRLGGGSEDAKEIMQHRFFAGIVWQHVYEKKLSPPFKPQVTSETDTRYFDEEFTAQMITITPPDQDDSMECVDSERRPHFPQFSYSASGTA", "experiment": "Mammalian kinase profiling (DSTT panel)", "assay_type": "biochemical", "conditions": "average percentage of remaining activity, read-out: PKBa activity compared to the control"}, "RSK2": {"target": "T5, RSK2 (Homo sapiens, UniProt P51812)", "T5 construct": "purchased Division of Signal Transduction Therapy (DSTT), University of Dundee", "T5 sequence (P51812 whole entry)": "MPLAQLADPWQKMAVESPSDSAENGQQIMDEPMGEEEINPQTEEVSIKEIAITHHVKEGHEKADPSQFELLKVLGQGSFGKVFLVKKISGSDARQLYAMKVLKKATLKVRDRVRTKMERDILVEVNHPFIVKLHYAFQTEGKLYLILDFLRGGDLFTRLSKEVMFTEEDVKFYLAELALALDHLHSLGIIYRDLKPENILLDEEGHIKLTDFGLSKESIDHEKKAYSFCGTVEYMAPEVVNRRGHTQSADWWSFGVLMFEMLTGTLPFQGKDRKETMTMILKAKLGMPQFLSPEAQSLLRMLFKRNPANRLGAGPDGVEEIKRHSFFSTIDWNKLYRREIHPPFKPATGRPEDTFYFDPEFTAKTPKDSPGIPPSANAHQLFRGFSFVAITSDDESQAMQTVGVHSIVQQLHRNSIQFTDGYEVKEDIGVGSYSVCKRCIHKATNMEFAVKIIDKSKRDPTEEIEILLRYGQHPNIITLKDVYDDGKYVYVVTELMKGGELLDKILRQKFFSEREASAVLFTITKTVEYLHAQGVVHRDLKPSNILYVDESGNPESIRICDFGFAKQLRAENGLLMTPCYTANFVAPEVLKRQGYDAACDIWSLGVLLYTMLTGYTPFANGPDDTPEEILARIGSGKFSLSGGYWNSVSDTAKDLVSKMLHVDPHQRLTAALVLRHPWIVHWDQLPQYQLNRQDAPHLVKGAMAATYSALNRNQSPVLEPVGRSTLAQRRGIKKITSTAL", "experiment": "Mammalian kinase profiling (DSTT panel)", "assay_type": "biochemical", "conditions": "10 μM; average percentage of remaining activity"}, "PRK2": {"target": "T6, PRK2 (Homo sapiens, UniProt Q16513)", "T6 construct": "purchased Division of Signal Transduction Therapy (DSTT), University of Dundee", "T6 sequence (Q16513 whole entry)": "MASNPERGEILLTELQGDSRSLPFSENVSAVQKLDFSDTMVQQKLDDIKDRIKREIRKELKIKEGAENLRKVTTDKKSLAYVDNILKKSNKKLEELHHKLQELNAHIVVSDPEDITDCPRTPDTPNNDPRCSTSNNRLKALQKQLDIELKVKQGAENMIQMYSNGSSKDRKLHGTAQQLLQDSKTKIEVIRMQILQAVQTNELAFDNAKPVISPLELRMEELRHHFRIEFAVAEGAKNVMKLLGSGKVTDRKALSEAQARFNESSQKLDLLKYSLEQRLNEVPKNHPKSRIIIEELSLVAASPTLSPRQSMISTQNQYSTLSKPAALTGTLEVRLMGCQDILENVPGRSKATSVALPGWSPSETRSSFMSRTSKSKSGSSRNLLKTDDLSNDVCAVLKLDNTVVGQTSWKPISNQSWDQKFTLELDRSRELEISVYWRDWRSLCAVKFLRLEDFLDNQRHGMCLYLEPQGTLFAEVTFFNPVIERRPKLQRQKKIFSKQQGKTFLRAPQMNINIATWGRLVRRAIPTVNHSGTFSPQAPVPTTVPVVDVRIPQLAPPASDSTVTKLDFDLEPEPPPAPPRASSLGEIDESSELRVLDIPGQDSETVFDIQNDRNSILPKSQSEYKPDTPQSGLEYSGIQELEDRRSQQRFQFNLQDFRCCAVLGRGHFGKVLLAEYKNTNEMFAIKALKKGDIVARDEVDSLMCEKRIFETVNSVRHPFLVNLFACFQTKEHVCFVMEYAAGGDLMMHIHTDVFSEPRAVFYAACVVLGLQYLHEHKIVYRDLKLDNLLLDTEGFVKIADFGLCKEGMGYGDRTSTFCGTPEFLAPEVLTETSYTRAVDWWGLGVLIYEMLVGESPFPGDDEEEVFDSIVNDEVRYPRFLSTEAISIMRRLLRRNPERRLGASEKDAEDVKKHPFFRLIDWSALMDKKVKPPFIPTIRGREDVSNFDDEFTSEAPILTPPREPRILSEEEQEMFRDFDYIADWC", "experiment": "Mammalian kinase profiling (DSTT panel)", "assay_type": "biochemical", "conditions": "10 μM; average percentage of remaining activity"}}}
{"molecule": "CO[C@H]1CC[C@H](NC(=O)c2n[nH]cc2NC(=O)c2ccccc2)CC1", "note": "[Compound 4f, 4-Benzamido-N-(4-methoxycyclohexyl)-1H-pyrazole-3-carboxamide]", "values": [{"measurement": "ratio HsCDK2/TbGSK3", "setting": "HsCDK2/cyclin A", "result": "<1.6"}, {"measurement": "P38b MAPK activity compared to the control", "setting": "P38b MAPK", "result": 74, "unit": "%"}]}
{"molecule": "COc1cccc(OC)c1C(=O)Nc1c[nH]nc1C(=O)NC1CCC(OC)CC1", "note": "(stereo not shown) [Compound 4m, 4-(2,6-Dimethoxybenzamido)-N-(4-methoxycyclohexyl)-1H-pyrazole-3-carboxamide]", "values": [{"measurement": "selectivity over MRC5 cells", "setting": "MRC5 cells", "result": 60, "unit": "fold"}, {"measurement": "inhibition at 10 µM", "setting": "GSK3b", "result": "> 80", "unit": "%"}, {"measurement": "inhibition at 10 µM", "setting": "CDK2", "result": "> 80", "unit": "%"}, {"measurement": "affinity for endogenous TbGSK3 short", "setting": "endogenous TbGSK3 short", "result": "nanomolar affinity"}, {"measurement": "EC50", "setting": "[1]", "result": "< 1000", "unit": "nM"}]}
{"molecule": "CO[C@H]1CC[C@H](NC(=O)c2n[nH]cc2NC(=O)c2ccc(-c3ccccc3)o2)CC1", "note": "[Compound 4y, N-(4-Methoxycyclohexyl)-4-(5-phenylfuran-2-carboxamido)-1H-pyrazole-3-carboxamide]", "values": [{"measurement": "remaining activity at 10 µM", "setting": "PKBa", "result": 86, "unit": "%"}, {"measurement": "RSK2 activity compared to the control", "setting": "RSK2", "result": 93, "unit": "%"}, {"measurement": "PRK2 activity compared to the control", "setting": "PRK2", "result": 65, "unit": "%"}]}
